Measured values: the supplement of paper PMC13380429
± gives the standard deviation of the averaged measurements.

How the values were obtained:
Conditions in all cases: 72 h
Calu-3 [1] = assay: relative viability EC50 (midpoint between 100% and the lowest measured viability); higher = less toxic
Vero E6 [2] = assay: as above
U2OS [3] = assay: as above
HepG2 [4] = assay: as above
Caco-2 [5] = assay: as above
Calu-3 [6] = assay: drug sensitivity score (DSS) for viability; higher = more toxic; extreme values may be limits of the assay
Vero E6 [7] = assay: as above
U2OS [8] = assay: as above
HepG2 [9] = assay: as above
Caco-2 [10] = assay: as above
Calu-3 [11] = assay: cell viability relative to DMSO; higher = less toxic
Vero E6 [12] = assay: as above
U2OS [13] = assay: as above
HepG2 [14] = assay: as above
Caco-2 [15] = assay: as above

SMILES	relative viability EC50 (Calu-3 [1])	relative viability EC50 (Vero E6 [2])	relative viability EC50 (U2OS [3])	relative viability EC50 (HepG2 [4])	relative viability EC50 (Caco-2 [5])	drug sensitivity score (Calu-3 [6])	drug sensitivity score (Vero E6 [7])	drug sensitivity score (U2OS [8])	drug sensitivity score (HepG2 [9])	drug sensitivity score (Caco-2 [10])	cell viability (Calu-3 [11]; 1 nM)	cell viability (Calu-3 [11]; 10 nM)	cell viability (Calu-3 [11]; 100 nM)	cell viability (Calu-3 [11]; 1000 nM)	cell viability (Calu-3 [11]; 10000 nM)	cell viability (Vero E6 [12]; 1 nM)	cell viability (Vero E6 [12]; 10 nM)	cell viability (Vero E6 [12]; 100 nM)	cell viability (Vero E6 [12]; 1000 nM)	cell viability (Vero E6 [12]; 10000 nM)	cell viability (U2OS [13]; 1 nM)	cell viability (U2OS [13]; 10 nM)	cell viability (U2OS [13]; 100 nM)	cell viability (U2OS [13]; 1000 nM)	cell viability (U2OS [13]; 10000 nM)	cell viability (HepG2 [14]; 1 nM)	cell viability (HepG2 [14]; 10 nM)	cell viability (HepG2 [14]; 100 nM)	cell viability (HepG2 [14]; 1000 nM)	cell viability (HepG2 [14]; 10000 nM)	cell viability (Caco-2 [15]; 1 nM)	cell viability (Caco-2 [15]; 10 nM)	cell viability (Caco-2 [15]; 100 nM)	cell viability (Caco-2 [15]; 1000 nM)	cell viability (Caco-2 [15]; 10000 nM)
CC12CCC(CC1=O)C2(C)C (stereo not drawn) [camphor-(+)]	> 10 µM	> 10 µM	> 10 µM	> 10 µM	> 10 µM	0	0	0	0.15 ± 0.21	0	86%	101%	102%	112%	112%	96.9 ± 3.2%	98.5 ± 2.7%	99.2 ± 4.2%	96.7 ± 2%	101 ± 9.5%	101 ± 2.5%	101 ± 6%	99.8 ± 0.42%	101 ± 5.5%	99.8 ± 3.1%	95.8 ± 3.6%	104 ± 13%	96.1 ± 0.42%	98.2 ± 1.8%	96.6 ± 14%	95.2 ± 8.1%	90.5 ± 0.99%	99.2 ± 3.3%	93.8 ± 7.3%	99.3 ± 6.2%
CCOC(=O)Nc1ccc2c(c1)N(C(=O)CCN(CC)CC)c1ccccc1S2 [ethacizin]	> 10 µM	> 10 µM	> 10 µM	> 10 µM	> 10 µM	0	0	0	0.2	0	98.3%	94.8%	97.4%	99.2%	98.1%	104%	91.8%	103%	88.9%	106%	97.2%	105%	95.6%	101%	95.9%	86.4%	90.4%	80.8%	92.7%	104%	94.6%	82.9%	97.8%	103%	97.6%
O=C(NC1CCNCC1)[C@@H]1CC[C@@H]2CN1C(=O)N2OS(=O)(=O)O [relebactam]	> 10 µM	> 10 µM	> 10 µM	> 10 µM	> 10 µM	0	0	0	0	0.3	110%	103%	99%	107%	98.2%	99.1%	97.2%	97.9%	102%	104%	102%	107%	103%	101%	100%	93.9%	109%	94.1%	108%	95.3%	92.6%	108%	89.4%	94.6%	90%
O=c1oc2c(O)c(O)cc3c(=O)oc4c(O)c(O)cc1c4c23 [ellagic-acid]	> 10 µM	> 10 µM	> 10 µM	> 10 µM	> 10 µM	0	0	0	0	0	98.4%	95.9%	99.4%	100%	93.2%	99.1%	106%	100%	105%	107%	99.3%	99.6%	103%	100%	105%	93.6%	97%	97.5%	96.4%	91.9%	104%	95.8%	104%	98.5%	96.6%
O=C1C(CC[S+]([O-])c2ccccc2)C(=O)N(c2ccccc2)N1c1ccccc1 (stereo not given) [sulfinpyrazone]	> 10 µM	> 10 µM	> 10 µM	> 10 µM	> 10 µM	0	0	0	0	0	93.2%	98%	98.9%	94%	105%	106%	103%	100%	97.1%	103%	97.5%	102%	104%	102%	102%	109%	115%	110%	97.7%	110%	102%	103%	98.5%	99.8%	90.5%
FC(F)(F)c1ccc(CNc2ccc(Cc3c[nH]c4ncccc34)cn2)cc1 [PLX647]	> 10 µM	> 10 µM	> 10 µM	> 10 µM	> 10 µM	0	0	0	0.1	0	102%	96.4%	105%	93.9%	94.7%	95.7%	98.8%	96.7%	98.5%	96.8%	104%	97.6%	101%	97.7%	96.4%	100%	97.6%	97.4%	101%	86.9%	96%	102%	94.7%	94.2%	91.3%
Oc1ccc(OCc2ccccc2)cc1 [monobenzone]	> 10 µM	> 10 µM	> 10 µM	> 10 µM	> 10 µM	0	0	0	0	0	97.5%	95.5%	94.6%	98.9%	94.5%	95.8%	97.4%	97.3%	100%	100%	107%	96.9%	94.9%	102%	110%	91.6%	94.9%	109%	103%	90.2%	99.2%	92.6%	103%	107%	88.3%
